Data published in patent US20040062780A1, “Compositions and methods useful for the reduction of fine lines and wrinkles” (priority 2002, published 2004).
Each block holds one molecule with its values, some of them ahead of it.

Columns and labels:
[1] = Dissolution of compounds in PEG-12 GDO lipid; assay type: physicochemical
Description: It will be appreciated that, while liposomes form spontaneously at the temperature of formation, cooling of liposomes after formation results in liposomes in trapped kinetic states. To minimize distortions in liposome structure upon such cooling, sterols such as cholesterol may be mixed with the lipid before liposome formation. It has been observed that cholesterol may be dissolved in PEG-12 GDO at up to about 10 percent by weight.
Tretinoin (all-trans retinoic acid), 6 mg, was dissolved in 500 μl of PEG-12 Glyceryl Dioleate. […] Distilled water, […], was added to the mixture and gently mixed. This yielded a concentration of 1 mg/ml. […] This solution can easily be incorporated into a cream, gel or lotion dosage form.

[2] = Spontaneous liposome formation of single lipids mixed with aqueous solution; assay type: physicochemical
Description: Lipids were tested at 2 weight percent in aqueous solution. Note that GDL means glycerol dilaurate, GDO means glycerol dioleate, GDM means glycerol dimyristate, GDP means glycerol dipalmitate, and GDS means glycerol distearate. For each lipid, the number after “PEG” indicates the numbers of C2H4O subunits in the PEG chain. The unsaturated dioleate lipids have similar packing parameters to the saturated dimyristate lipids.
Single lipids were tested for their ability to spontaneously form liposomes when mixed with an aqueous solution. PEG-12 GDO was obtained from Global 7 (New Jersey). All other lipids were synthesized for the experiment (see Table 1). For each experiment, water and lipid were separately equilibrated at the appropriate temperature. Two weight percent lipid was added to the aqueous solution, and the solution was analyzed for the presence of liposomes by optical light microscopy, cryo TEM, freeze fracture TEM, or hot stage microscopy.

amount dissolved in PEG-12 GDO ([1]; in PEG-12 GDO): up to 10 percent by weight
Molecule: CC(C)CCC[C@@H](C)[C@H]1CC[C@H]2[C@@H]3CC=C4C[C@@H](O)CC[C@]4(C)[C@H]3CC[C@]12C [cholesterol]

Spontaneous Liposomes at 20° C. ([2]; 2 weight percent lipid in aqueous solution, 20° C.): YES
Spontaneous Liposomes at 37° C. ([2]; 2 weight percent lipid in aqueous solution, 37° C.): YES
Spontaneous Liposomes at 60° C. ([2]; 2 weight percent lipid in aqueous solution, 60° C.): YES
Molecule: PEG-12 Glyceryl Dioleate [PEG-12 GDO]
spontaneous liposome formation ([2]; all temperatures tested): spontaneously forms liposomes at all temperatures tested

dissolution in PEG-12 Glyceryl Dioleate ([1]; 6 mg in 500 μl of PEG-12 Glyceryl Dioleate): Dissolution was complete
Molecule: CC1=C(/C=C/C(C)=C/C=C/C(C)=C/C(=O)O)C(C)(C)CCC1 [Tretinoin, all-trans retinoic acid, reference compound]
